{"source": "ChEMBL document CHEMBL1130333", "about": "“On the mechanism of chorismate mutases: Revisiting structural requirements for catalysis” (Bioorg Med Chem Lett, 1997)", "key": {"[1]": {"test": "The compound was tested for inhibition of Bacillus subtilis chorismate mutase (BcCM); weak competitive inhibitor"}, "[2]": {"test": "Rearrangement half-life at pH of 7.4 was determined", "format": "ADME", "settings": "pH 7.4"}, "[3]": {"test": "Rearrangement half-life at pH of 7.8 was determined", "format": "ADME", "settings": "pH 7.8"}}}
{"smiles": "C=C(O[C@@H]1C=CC=C[C@H]1O)C(=O)[O-].[Na+]", "values": [{"measurement": "Ki", "setting": "[1]", "result": 500, "unit": "µM"}, {"measurement": "half-life", "setting": "[2]", "result": 1.7, "unit": "h"}, {"measurement": "half-life", "setting": "[3]", "result": 3.1, "unit": "h"}]}
